Results reported in patent publication US20180064730A1 (priority 2014, published 2018).
Several values for one entry are separate records, joined by “and”; a condition that tells them apart may be missing. Identical values can stand only once. Entries after “also recorded” stand apart in the source; their conditions may differ. Like-named read-outs stand apart in the source and are kept apart here.

Experiments:
[1] = tested on: IL-8 secretion from CF lung epithelial cells; test: Suppression of constitutive IL-8 secretion from CF lung epithelial cells; type: cell-based, human; conditions: for IC50: constitutive IL-8 hypersecretion, read-out: K50 (concentration causing a 50% reduction of IL-8 secretion)
Text: Analysis of cardiac glycoside activities identifies a structure-activity-relationship for IL-8 suppression. […] Using all the data we were also able to derive a structure-activity relationship (see Table 1). Briefly, suppression of IL-8 secretion from CF lung epithelial cells is optimally promoted by the presence of glycosyl moieties at the 3-position of the cholesterol nucleus, and by the absence of oxygen-containing substitutions at or near the 12-position on the C ring. Activity declines when glycosyl moieties are absent from the 3-position, and when oxygen-containing substitutions are made at or near the 12-position on the C ring. […] We therefore give the equatorial 12-position and its neighbors crucial negative pharmacophoric importance, and glycosidic substitution at the 3-position positive pharmacophoric importance for the control of IL-8 secretion from CF lung epithelial cells.
(§1) Previously published data had implicated a dysfunctional TNFα/NFκB signaling pathway as responsible for the pro-inflammatory phenotype of the CF lung. […] (46 Srivastava et al, 2004) (47 Yang Q, et al, 2005).

[2] = tested on: control patients / heart failure patients; conditions: cited from earlier work
[3] = tested on: Wuhan influenza virus induced lung inflammation; test: Rodent influenza lung inflammation model, lung cytokines/chemokines by ELISA; type: in vivo, cotton rat
Protocol: Applicant previously conducted a study on a mammal, a rodent with induced lung inflammation from Wuhan influenza virus.
Lung tissue was harvested on day 7, and assayed in terms of pg/ml for iFN-Gamma, GRO/KC, MTP-2, TNF-ALPHA, IL-1B, MCP-1. TGF-Beta, and GM-CSF. Rodents lack IL-8, and instead have GRO/KC and MIP-2.
Methods: The assays for different cytokines and chemokines were performed with commercial micro-sandwich ELISA assays. (Searchlight System, Pierce-Thermo). The results shown are for 22 patients, including 14 females and 8 males.

[4] = target: T1, TNF-alpha-activated TNFR and TRADD (Homo sapiens, UniProt P19438+Q15628); test: Interaction between TNF-alpha-activated TNFR and TRADD
T1 sequence (Q15628 1-312): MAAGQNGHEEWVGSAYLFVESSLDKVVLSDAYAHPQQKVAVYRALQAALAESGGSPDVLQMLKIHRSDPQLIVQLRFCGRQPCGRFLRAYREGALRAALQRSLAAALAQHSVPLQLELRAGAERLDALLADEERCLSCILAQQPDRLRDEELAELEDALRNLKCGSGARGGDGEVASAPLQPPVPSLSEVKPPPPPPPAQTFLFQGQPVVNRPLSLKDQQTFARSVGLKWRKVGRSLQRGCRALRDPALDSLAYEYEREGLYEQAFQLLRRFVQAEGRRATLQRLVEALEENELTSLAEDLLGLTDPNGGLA
T1 sequence (P19438 22-455 limits assumed): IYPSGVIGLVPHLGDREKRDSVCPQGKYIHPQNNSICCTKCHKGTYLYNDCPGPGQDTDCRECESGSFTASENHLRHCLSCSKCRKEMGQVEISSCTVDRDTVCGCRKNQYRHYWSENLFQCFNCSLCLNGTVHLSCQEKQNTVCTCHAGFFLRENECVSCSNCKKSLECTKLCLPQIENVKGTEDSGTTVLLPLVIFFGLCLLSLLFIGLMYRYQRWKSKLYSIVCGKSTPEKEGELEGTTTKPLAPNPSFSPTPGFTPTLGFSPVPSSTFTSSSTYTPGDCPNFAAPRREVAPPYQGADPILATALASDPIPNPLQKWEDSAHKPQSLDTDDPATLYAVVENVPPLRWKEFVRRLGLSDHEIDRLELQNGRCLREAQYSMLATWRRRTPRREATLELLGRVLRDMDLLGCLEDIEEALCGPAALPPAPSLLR
Text: Increased expression of TRADD is associated with a greater rate of decline in CF lung function. […] Trend-lines are based on data for female CF patients, who make up the majority of the patients.

CF patients = test: Phase II clinical trial of digitoxin in cystic fibrosis: adverse events; conditions: for Pulm, upper_resp adverse events (cases) / Dermatolog adverse events / Gastrointestinal adverse events / General adverse events / Musculoskel adverse events / Neurological adverse events / Reproductive adverse events / Total (all) adverse events (cases): 28 days, n = 8; for Incidence Rate, all adverse events / Incidence Rate, pulmonary adverse events: person-time 224
Protocol: Experiment# 1.1. Study design and methods: The study was a randomized, double-blind, placebo controlled, repeat dosing escalation trial. Adults 18-45 years of age with a diagnosis of CF and meet Inclusion/exclusion criteria were selected for the trial. The 24 evaluable patients were studied at a single site, and randomized with respect to drug treatment and placebo at a ratio of 2:1, respectively. Screening included a 24 hour Holter monitor to screen for possible for baseline dysrhythmias. […] Dosing was once a day for 28 days with 8 patients in each group.
The inclusion criteria included (i) male or female, 18 to 45 years of age; (ii) confirmed diagnosis of CF by sweat test (a sweat chloride concentration≧60 meq/L), and a genotype consistent with a CF diagnosis; (iii) FEV 1, % PRED≧40%; (iv) clinically stable with no evidence of acute upper respiratory or lower respiratory tract infection or current pulmonary exacerbation; (v) ability to perform spirometry; (vi) weight≧45 kg at screening and at visit #1 (dosing).
During this period, subjects were not taking macrolide antibiotics.

[5] = tested on: TNFα/NFκB signaling pathway; test: Reverse Phase Protein Microarray of IB3-1 and CFTR-repaired IB3-1/S9 cells; type: cell-based, human; conditions: ID90 concentrations; IB3-1 and IB3-1/S9 cells
Text: as §1

[6] = cited from earlier work
[7] = tested on: TNFalpha-activated NFκB activation and IL-8 expression; conditions: CF airway epithelial cells; cited from earlier work
CF children = conditions: CF vs control children; cited from earlier work
[8] = 3, 10 and 30 mg/kg daily, lung harvested day 7

CC(=O)O[C@H]1CC[C@]2(C=O)[C@H]3CC[C@]4(C)[C@@H](C5=CC(=O)OC5)CC[C@]4(O)[C@@H]3CC[C@]2(O)C1 [Acetyl Strophanthidin]
IC50 [1]: 117 nM

C[C@]12CC[C@H](O)C[C@H]1CC[C@@H]1[C@@H]2CC[C@]2(C)[C@@H](C3=CC(=O)OC3)CC[C@]12O [Digitoxigenin]
IC50 ([1]; Homo sapiens, Epithelial cell): 73.6 nM

C[C@H]1O[C@@H](O[C@H]2[C@@H](O)C[C@H](O[C@H]3[C@@H](O)C[C@H](O[C@H]4CC[C@@]5(C)[C@H](CC[C@@H]6[C@@H]5CC[C@]5(C)[C@@H](C7=CC(=O)OC7)CC[C@]65O)C4)O[C@@H]3C)O[C@@H]2C)C[C@H](O)[C@@H]1O [Digitoxin]
incidence of adverse events vs digoxin ([2]; U.S. 1995-1998 retrospective, heart failure patients): approximately three-fold lower incidence
side effects ([2]; control patients, ca. 30 nM in the circulation): only modest, or in many cases, undetectable side effects
GRO/KC in lung tissue [3, 8]: significant reductions; also recorded: suppressed
IFN-gamma in lung tissue [3, 8]: significant reductions
IL-1B in lung tissue [3, 8]: No significant changes
MCP-1 in lung tissue [3, 8]: significant reductions
MIP-2 in lung tissue [3, 8]: significant reductions; also recorded: suppressed
TGF-B in lung tissue [3, 8]: No significant changes
TNF-alpha in lung tissue [3, 8]: significant reductions; also recorded: reduced
lung inflammation in rodent model ([3]; experimental model of lung inflammation): profound, dose-dependent reduction
interaction between TNF-alpha-activated TNFR and TRADD [4]: blocks
Pulm, upper_resp adverse events (cases) (CF patients; 0.05 mg by mouth daily): 9
Dermatolog adverse events (CF patients; 0.05 mg daily): 0
Gastrointestinal adverse events (CF patients; 0.05 mg daily): 5
General adverse events (CF patients; 0.05 mg daily): 3
Musculoskel adverse events (CF patients; 0.05 mg daily): 2
Neurological adverse events (CF patients; 0.05 mg daily): 8
Reproductive adverse events (CF patients; 0.05 mg daily): 1
Total (all) adverse events (cases) (CF patients; 0.05 mg daily): 29
Incidence Rate, all adverse events (CF patients; 0.05 mg daily): 0.1295
Incidence Rate, pulmonary adverse events (CF patients; 0.05 mg daily): 0.04018
Inc. rate diff., all adverse events (CF patients; 0.05 mg vs placebo): −0.008929
Inc. rate diff., pulmonary adverse events (CF patients; 0.05 mg vs placebo): −0.008929
Prev. frac. pop, all adverse events (CF patients; 0.05 mg vs placebo): 0.03571
Prev. frac. pop, pulmonary adverse events (CF patients; 0.05 mg vs placebo): 0.09091
prev. frac. ex., all adverse events (CF patients; 0.05 mg vs placebo): 0.06897
prev. frac. ex., pulmonary adverse events (CF patients; 0.05 mg vs placebo): 0.1818
reduction in pulmonary, upper respiratory adverse events, significance (CF patients; 0.05 mg/day vs placebo): not statistically significant
Pulm, upper_resp adverse events (cases) (CF patients; 0.10 mg by mouth daily): 2
Dermatolog adverse events (CF patients; 0.10 mg daily): 1
Gastrointestinal adverse events (CF patients; 0.10 mg daily): 5
General adverse events (CF patients; 0.10 mg daily): 3
Musculoskel adverse events (CF patients; 0.10 mg daily): 1
Neurological adverse events (CF patients; 0.10 mg daily): 2
Reproductive adverse events (CF patients; 0.10 mg daily): 0
Total (all) adverse events (cases) (CF patients; 0.10 mg daily): 15
Incidence Rate, all adverse events (CF patients; 0.10 mg daily): 0.06696-3 and 0.06696
Incidence Rate, pulmonary adverse events (CF patients; 0.10 mg daily): 0.008929
Inc. rate diff., all adverse events (CF patients; 0.10 mg vs 0.05 mg): −0.0625
Inc. rate diff., pulmonary adverse events (CF patients; 0.10 mg vs 0.05 mg): −0.03125
Prev. frac. pop, all adverse events (CF patients; 0.10 mg vs 0.05 mg): 0.2414
Prev. frac. pop, pulmonary adverse events (CF patients; 0.10 mg vs 0.05 mg): 0.3889
prev. frac. ex., all adverse events (CF patients; 0.10 mg vs 0.05 mg): 0.4828
prev. frac. ex., pulmonary adverse events (CF patients; 0.10 mg vs 0.05 mg): 0.7778
Inc. rate diff., all adverse events (CF patients; 0.10 mg vs placebo): −0.05357
Inc. rate diff., pulmonary adverse events (CF patients; 0.10 mg vs placebo): −0.04018.
Prev. frac. pop, all adverse events (CF patients; 0.10 mg vs placebo): 0.2222
Prev. frac. pop, pulmonary adverse events (CF patients; 0.10 mg vs placebo): 0.4091
prev. frac. ex., all adverse events (CF patients; 0.10 mg vs placebo): 0.4444
prev. frac. ex., pulmonary adverse events (CF patients; 0.10 mg vs placebo): 0.8182
reduction in pulmonary, upper respiratory adverse events, significance (CF patients; 0.10 mg/day (high dose) vs 0.05 mg/day (low dose)): statistically significant
reduction in pulmonary, upper respiratory adverse events, significance (CF patients; 0.10 mg/day vs placebo): statistically significant
serious adverse events (CF patients; clinical trial in CF patients): no serious adverse events
CF-related constitutive phosphorylation of IKBα [5]: significantly blocked
CF-related constitutive phosphorylation of NFκB,p65 [5]: significantly blocked
phosphorylation of IKKα [5]: somewhat suppressed
IC50 ([1]; Homo sapiens, Epithelial cell): ~0.9 nM
bioavailable ([6]; given by mouth): 100%
bound to blood and tissue proteins ([6]; human, in vivo): 90%
TNFalpha-activated NFκB activation and IL-8 expression [7]: blocks

C[C@]12CC[C@H](O)C[C@H]1CC[C@@H]1[C@@H]2C[C@@H](O)[C@]2(C)[C@@H](C3=CC(=O)OC3)CC[C@]12O [Digoxigenin]
IC50 ([1]; Homo sapiens, Epithelial cell): 34.1 nM

C[C@H]1O[C@@H](O[C@H]2[C@@H](O)C[C@H](O[C@H]3[C@@H](O)C[C@H](O[C@H]4CC[C@@]5(C)[C@H](CC[C@@H]6[C@@H]5C[C@@H](O)[C@]5(C)[C@@H](C7=CC(=O)OC7)CC[C@]65O)C4)O[C@@H]3C)O[C@@H]2C)C[C@H](O)[C@@H]1O [Digoxin]
exercise capacity or exercising cardiac function (CF children): no difference
IC50 ([1]; Homo sapiens, Epithelial cell): 27 nM
IC50 [1]: 27.1 nM

CO[C@H]1C[C@H](O[C@H]2CC[C@@]3(C)[C@H](CC[C@@H]4[C@@H]3CC[C@]3(C)[C@@H](C5=CC(=O)OC5)[C@@H](OC(C)=O)C[C@]43O)C2)O[C@@H](C)[C@@H]1O [Oleandrin]
IC50 ([1]; Homo sapiens, Epithelial cell): 2 nM

C[C@@H]1O[C@@H](O[C@H]2C[C@@H](O)[C@]3(CO)[C@H]4[C@H](O)C[C@]5(C)[C@@H](C6=CC(=O)OC6)CC[C@]5(O)[C@@H]4CC[C@]3(O)C2)[C@H](O)[C@H](O)[C@H]1O [Ouabain]
IC50 ([1]; Homo sapiens, Epithelial cell): 7.9 nM

Digitoxigenin 3,12-diAc
activity for suppression of IL-8 secretion [1]: Activity is altogether lost
